Results published in patent US8846904B2, “Water-soluble porphyrin and process for production thereof” (University of Miyazaki, priority 2009, dated 2014).
Where two headings read alike, the source gives them in different places.

Experiments:
[1] = test system: yeast (Saccharomyces cerevisiae); experiment: Biocompatibility: concentration of PTPP derivative adsorbed on yeast cells (Cad), microscope absorption spectrophotometry; type: cell-based; details: 10 μM of PTPP derivative added to a yeast solution (1.0×10^4 cell/mL); Nd = below the detection limit
Procedure: Subsequently, the biocompatibility of this PTPP derivative was assessed in the following manner. An aqueous solution of this PTPP derivative (0.5 mL, 50 μm) was added to the cell suspension (1.0 mL; ca. 2.5×10^4 cell/mL) of yeast, and then an aqueous solution of agar (1 wt %; 1.0 mL) was added. A portion of the prepared aqueous solution containing the PTPP derivative (10 μm), yeast (Saccharomyces cerevisiae; ca. 1.0×10^4 cell/mL) and agar (0.4 wt %) was placed on a space (1 cm×1 cm) surrounded by a silicone spacer (thickness 50 μm) put on a glass slide, covered with a cover glass. The glass slide was set on the stage of an optical microscope. Thereafter, appropriate bacterial cells were positioned in the center of the field of view, and the Q-band absorption spectrum of the PTPP derivative near 560 nm was measured. Then, the concentration (Cad) of the PTPP derivative adsorbed on the bacterial cells was calculated from absorption spectrophotometry based on the Lambert-Beer law.

[2] = Solubility in water (Cw), saturated aqueous solution, absorption spectrum; type: physicochemical
Procedure: (§1) 10 mg of the obtained PTPP derivative was dispersed in 0.50 mL of water and allowed to stand for 3 days to prepare a saturated aqueous solution. The supernatant of the aqueous solution was collected and diluted with methanol. Thereafter, the absorption spectrum was measured and the solubility in water (Cw) was calculated using the molar absorption coefficient of the PTPP derivative in methanol. In a similar manner to the above, the solubility in dioxane (Co) was also calculated.

[3] = Solubility in dioxane (Co), absorption spectrum; type: physicochemical
Procedure: as §1

[4] = Quantum yield of 1O2 production, near infrared emission at 1,270 nm; type: physicochemical; details: aqueous PTPP derivative solution (20 μM), laser 558 nm, relative to methylene blue
Source text: When the photosensitizer “Photofrin” that has been practically used in PDT treatment is used, the quantum yield of ^1O2 is 0.53 (J. Photochem. Photobiol. B, 92 (2008), 59-65). In contrast, when the PTPP derivatives prepared in Examples 2, 3, and 4 were used, the quantum yields of ^1O2 were 0.62, 0.69, and 0.73, respectively. This explains that the water-soluble porphyrins of the present invention have high photoexcitation efficiency and can thus be suitably used for PDT. The quantum yields of the ^1O2 production were determined by directly measuring the near infrared emission near 1,270 nm obtained by deactivation of the produced ^1O2.
Specifically, an aqueous PTPP derivative solution (20 μM) was irradiated with a laser beam of 558 nm to excite the PTPP derivative, and the emission spectrum of the produced ^1O2 was measured. The quantum yield of the ^1O2 production was calculated by comparing the emission intensity at 1,270 nm obtained with respect to the aqueous PTPP derivative solution with the emission intensity at 1,270 nm obtained in the same manner as above with respect to methylene blue (quantum yield: 0.52).

[5] = cited from earlier work
[6] = Partition from aqueous phase to water-immiscible organic solvent (octanol or chloroform); type: physicochemical; details: octanol or chloroform added to the aqueous solution and stirred; derivative promptly moved to the organic phase
Procedure: A water-immiscible organic solvent, such as octanol or chloroform, was added to the aqueous solution of the PTPP derivative (Cw=17.3 mM, Co=0.245 mM) and stirred. This caused the PTPP derivative dissolved in the aqueous phase to promptly move to the organic phase.

[7] = saturated aqueous solution, allowed to stand for 3 days

Compound	Cad (concentration of PTPP derivative adsorbed on bacterial cell) [1]	quantum yield of 1O2 [4]	Solubility Cw (solubility in water) [2, 7]	Solubility Co (solubility in dioxane) ([3]; solvent dioxane)	also measured
CCCCCCOCCO[P-]123(OCCOCCCCCC)n4c5ccc4C(c4ccccc4)=C4C=CC(=[N+]41)C(c1ccccc1)=c1ccc(n12)=C(c1ccccc1)C1=[N+]3C(=C5c2ccccc2)C=C1.Cl [Example 6]	142 mM				Solubility Cw (solubility in water) [2]: 1.11 mM; Solubility Co (solubility in dioxane) [3]: 0.242 mM
CCCCOCCOCCO[P-]123(OCCOCCOCCCC)n4c5ccc4C(c4ccccc4)=C4C=CC(=[N+]41)C(c1ccccc1)=c1ccc(n12)=C(c1ccccc1)C1=[N+]3C(=C5c2ccccc2)C=C1.Cl [Example 4]	74.6 mM	0.73	5.38 mM	0.293 mM	
CCCCCCCCCCCCOCCOCCOCCOCCOCCOCCOCCOCCOCCO[P-]123(OCCOCCOCCOCCOCCOCCOCCOCCOCCOCCCCCCCCCCCC)n4c5ccc4C(c4ccccc4)=C4C=CC(=[N+]41)C(c1ccccc1)=c1ccc(n12)=C(c1ccccc1)C1=[N+]3C(=C5c2ccccc2)C=C1.Cl [Example 7]			14.46 mM	≧25 mM	
COCCOCCO[P-]123(OCCOCCOC)n4c5ccc4C(c4ccccc4)=C4C=CC(=[N+]41)C(c1ccccc1)=c1ccc(n12)=C(c1ccccc1)C1=[N+]3C(=C5c2ccccc2)C=C1.Cl [Example 2]	17.8 mM	0.62	13.9 mM	0.140 mM	
Photofrin					quantum yield of 1O2 ([5]; Photofrin, from J. Photochem. Photobiol. B, 92 (2008), 59-65): 0.53
CCOCCOCCO[P-]123(OCCOCCOCC)n4c5ccc4C(c4ccccc4)=C4C=CC(=[N+]41)C(c1ccccc1)=c1ccc(n12)=C(c1ccccc1)C1=[N+]3C(=C5c2ccccc2)C=C1.Cl [Example 3]	27.5 mM	0.69	13.0 mM	0.169 mM	
CCCCCCOCCOCCO[P-]123(OCCOCCOCCCCCC)n4c5ccc4C(c4ccccc4)=C4C=CC(=[N+]41)C(c1ccccc1)=c1ccc(n12)=C(c1ccccc1)C1=[N+]3C(=C5c2ccccc2)C=C1.Cl [Example 5]	146 mM		2.07 mM	0.244 mM	
COCCOCCOCCO[P-]123(OCCOCCOCCOC)n4c5ccc4C(c4ccccc4)=C4C=CC(=[N+]41)C(c1ccccc1)=c1ccc(n12)=C(c1ccccc1)C1=[N+]3C(=C5c2ccccc2)C=C1.Cl [Example 1]			17.3 mM	0.245 mM	partition to the organic phase [6]: high partition coefficient to the organic phase
CN(C)c1ccc2nc3ccc(=[N+](C)C)cc-3sc2c1 [methylene blue]					quantum yield of 1O2 ([5]; methylene blue reference standard value): 0.52
CCCCCCCCCCCCCCCCCCOCCOCCOCCOCCO[P-]123(OCCOCCOCCOCCOCCCCCCCCCCCCCCCCCC)n4c5ccc4C(c4ccccc4)=C4C=CC(=[N+]41)C(c1ccccc1)=c1ccc(n12)=C(c1ccccc1)C1=[N+]3C(=C5c2ccccc2)C=C1.Cl [Example 8]			7.96 mM	≧25 mM	
